Activity calls are given as the source filed them. The rule behind the calls is not given here.
Key:
[1] = tested on: Mus musculus; experiment: Residual inhibition of morphine-induced analgesia in mouse at 2.4 nmol, icv measured after 2 hrs by tail-flick assay; type: functional, organism-based
[2] = Toxicity in mouse assessed as animal death at 2.4 nmol, icv; type: organism-based; details: in vivo, icv or intrathecal, read-out: Activity
[3] = tested on: Mus musculus; experiment: Toxicity in mouse at 4.8 nmol, icv measured within 1.5 hrs post-drug administration; type: organism-based; details: in vivo, icv_or_intrathecal
[4] = target: Opioid receptors; mu/kappa/delta (Homo sapiens) (UniProt P41145+P41143+P35372); details: Brain, 1 uM
Opioid receptors; mu/kappa/delta (Homo sapiens), sequence (P35372 whole entry, looked up): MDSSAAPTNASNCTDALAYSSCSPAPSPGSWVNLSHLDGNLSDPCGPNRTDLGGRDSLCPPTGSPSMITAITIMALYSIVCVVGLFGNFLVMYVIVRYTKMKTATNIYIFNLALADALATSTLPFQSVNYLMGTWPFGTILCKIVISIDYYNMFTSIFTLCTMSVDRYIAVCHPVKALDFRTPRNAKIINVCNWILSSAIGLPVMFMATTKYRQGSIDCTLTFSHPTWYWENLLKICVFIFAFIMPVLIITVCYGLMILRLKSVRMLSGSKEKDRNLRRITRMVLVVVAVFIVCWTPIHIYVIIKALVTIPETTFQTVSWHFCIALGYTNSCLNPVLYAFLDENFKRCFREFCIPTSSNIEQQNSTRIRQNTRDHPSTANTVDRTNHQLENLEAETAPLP
Opioid receptors; mu/kappa/delta (Homo sapiens), sequence (P41143 whole entry, looked up): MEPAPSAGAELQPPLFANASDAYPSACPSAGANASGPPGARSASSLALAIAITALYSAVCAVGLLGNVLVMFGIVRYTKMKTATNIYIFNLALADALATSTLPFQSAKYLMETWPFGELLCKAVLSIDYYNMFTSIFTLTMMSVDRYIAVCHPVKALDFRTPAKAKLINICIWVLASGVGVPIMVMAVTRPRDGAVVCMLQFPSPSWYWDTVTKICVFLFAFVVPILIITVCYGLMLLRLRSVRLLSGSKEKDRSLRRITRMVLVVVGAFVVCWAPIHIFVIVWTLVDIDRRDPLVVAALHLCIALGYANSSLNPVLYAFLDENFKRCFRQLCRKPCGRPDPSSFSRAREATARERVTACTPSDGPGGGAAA
Opioid receptors; mu/kappa/delta (Homo sapiens), sequence (P41145 whole entry, looked up): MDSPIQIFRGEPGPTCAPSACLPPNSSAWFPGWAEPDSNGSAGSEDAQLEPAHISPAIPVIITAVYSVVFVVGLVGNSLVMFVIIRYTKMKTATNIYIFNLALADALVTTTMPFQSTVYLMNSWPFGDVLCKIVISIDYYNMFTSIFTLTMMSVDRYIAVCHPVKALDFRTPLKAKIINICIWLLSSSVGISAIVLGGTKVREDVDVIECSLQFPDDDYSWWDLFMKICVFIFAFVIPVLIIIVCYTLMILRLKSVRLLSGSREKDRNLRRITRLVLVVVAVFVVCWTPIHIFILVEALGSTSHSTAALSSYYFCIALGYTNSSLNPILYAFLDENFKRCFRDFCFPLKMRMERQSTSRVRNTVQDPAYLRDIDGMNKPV
Description: Displacement of [3H]naloxone from opioid receptor (unknown origin) in brain homogenate at 1 uM to 10 nM

Question: With O=C1CC[C@@]2(O)[C@H]3Cc4ccc(O)c5c4[C@@]2(CCN3CC2CC2)[C@H]1O5 as the molecule, how does the inhibition [1] read?
Answer: The inhibition was “inactive”.

Question: Which mortality [2] does the source give for Cl.Oc1ccc2c3c1O[C@H]1[C@H](N(CCCl)CCCl)CC[C@@]4(O)[C@@H](C2)N(CC2CC2)CC[C@]314 here?
Answer: The mortality was 2%.

Question: What about the Activity [3] of the same molecule?
Answer: The Activity was 12%.

Question: With CN1CC[C@]23CCCC[C@H]2[C@H]1Cc1ccc(O)cc13 as the molecule, how does the inhibition [4] read?
Answer: The inhibition was “Active”.
